For one assay, the target named is FGFR3 enzyme (Millipore) (Homo sapiens (Human), UniProt P22607). The assay is described as follows: biochemical.
The target in another assay is FGFR2 (Homo sapiens (Human), UniProt P21802). The assay is described as follows: FGFR Enzymatic Assay (FGFR2).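 Also: FRET read-out of peptide phosphorylation by the purified kinase, with enzyme-free blank and uninhibited enzyme as controls, potency from a variable-slope sigmoidal dose-response fit.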 It is filed as biochemical.
The next assay deals with FGFR1 (Homo sapiens (Human), UniProt P11362). Description: FGFR Enzymatic Assay (FGFR1). It is filed as biochemical. The settings on record: enzyme 0.02 nM, ATP 210 μM.
The mark [1] stands for this setting: enzyme 0.01 nM, ATP 100 μM, read-out: FGFR2 IC50.

We go through five compounds from patent US9745311B2, “Substituted pyrrolo[2,3-b]pyrazines as FGFR inhibitors” (Incyte Corporation, priority 2012, dated 2017).

The structures appear in SMILES notation. Read-outs that look alike come from different tables or passages of the source.

Sequence of FGFR2 (P21802 22-821): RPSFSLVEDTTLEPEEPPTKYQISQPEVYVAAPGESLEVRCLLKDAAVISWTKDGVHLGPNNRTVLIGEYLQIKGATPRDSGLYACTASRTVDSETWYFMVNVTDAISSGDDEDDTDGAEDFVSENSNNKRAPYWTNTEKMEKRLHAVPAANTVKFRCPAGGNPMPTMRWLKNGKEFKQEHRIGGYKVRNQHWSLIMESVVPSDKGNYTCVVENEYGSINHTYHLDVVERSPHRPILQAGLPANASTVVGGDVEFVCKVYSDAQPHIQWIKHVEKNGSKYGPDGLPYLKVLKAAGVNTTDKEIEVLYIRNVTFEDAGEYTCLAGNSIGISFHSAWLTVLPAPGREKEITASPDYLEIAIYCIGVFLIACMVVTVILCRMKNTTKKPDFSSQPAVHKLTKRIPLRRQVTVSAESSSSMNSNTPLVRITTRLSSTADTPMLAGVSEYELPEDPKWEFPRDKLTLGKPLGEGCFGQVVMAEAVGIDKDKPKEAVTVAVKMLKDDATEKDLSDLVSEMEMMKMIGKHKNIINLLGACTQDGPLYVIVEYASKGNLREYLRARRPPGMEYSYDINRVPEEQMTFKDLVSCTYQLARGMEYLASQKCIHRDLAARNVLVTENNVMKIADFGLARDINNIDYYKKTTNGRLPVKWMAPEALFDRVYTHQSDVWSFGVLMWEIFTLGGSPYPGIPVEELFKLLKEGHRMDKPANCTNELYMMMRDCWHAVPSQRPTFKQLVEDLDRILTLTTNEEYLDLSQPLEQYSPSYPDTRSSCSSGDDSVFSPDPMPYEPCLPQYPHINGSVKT
Sequence of FGFR3 enzyme (Millipore) (P22607 23-806): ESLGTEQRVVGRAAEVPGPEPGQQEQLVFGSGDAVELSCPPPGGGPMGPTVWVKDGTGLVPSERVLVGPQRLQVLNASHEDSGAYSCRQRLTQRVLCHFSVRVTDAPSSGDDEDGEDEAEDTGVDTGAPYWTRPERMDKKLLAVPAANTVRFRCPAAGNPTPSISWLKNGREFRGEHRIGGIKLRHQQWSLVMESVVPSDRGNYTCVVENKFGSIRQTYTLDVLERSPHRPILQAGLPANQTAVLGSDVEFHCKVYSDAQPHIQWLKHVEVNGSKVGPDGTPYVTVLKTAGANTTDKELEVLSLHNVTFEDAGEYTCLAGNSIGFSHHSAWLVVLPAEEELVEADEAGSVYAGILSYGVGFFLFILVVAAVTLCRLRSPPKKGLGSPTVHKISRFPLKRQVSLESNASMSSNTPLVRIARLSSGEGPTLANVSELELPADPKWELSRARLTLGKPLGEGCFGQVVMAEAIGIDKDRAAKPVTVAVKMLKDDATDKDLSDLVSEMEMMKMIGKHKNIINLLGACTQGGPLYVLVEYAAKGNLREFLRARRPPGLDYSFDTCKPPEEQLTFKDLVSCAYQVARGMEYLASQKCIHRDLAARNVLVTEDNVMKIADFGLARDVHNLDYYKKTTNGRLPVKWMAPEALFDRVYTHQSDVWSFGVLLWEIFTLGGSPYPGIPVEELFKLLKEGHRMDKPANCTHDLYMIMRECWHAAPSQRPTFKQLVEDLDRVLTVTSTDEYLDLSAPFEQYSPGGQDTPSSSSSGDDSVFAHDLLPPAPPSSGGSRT
Sequence of FGFR1 (P11362 22-822): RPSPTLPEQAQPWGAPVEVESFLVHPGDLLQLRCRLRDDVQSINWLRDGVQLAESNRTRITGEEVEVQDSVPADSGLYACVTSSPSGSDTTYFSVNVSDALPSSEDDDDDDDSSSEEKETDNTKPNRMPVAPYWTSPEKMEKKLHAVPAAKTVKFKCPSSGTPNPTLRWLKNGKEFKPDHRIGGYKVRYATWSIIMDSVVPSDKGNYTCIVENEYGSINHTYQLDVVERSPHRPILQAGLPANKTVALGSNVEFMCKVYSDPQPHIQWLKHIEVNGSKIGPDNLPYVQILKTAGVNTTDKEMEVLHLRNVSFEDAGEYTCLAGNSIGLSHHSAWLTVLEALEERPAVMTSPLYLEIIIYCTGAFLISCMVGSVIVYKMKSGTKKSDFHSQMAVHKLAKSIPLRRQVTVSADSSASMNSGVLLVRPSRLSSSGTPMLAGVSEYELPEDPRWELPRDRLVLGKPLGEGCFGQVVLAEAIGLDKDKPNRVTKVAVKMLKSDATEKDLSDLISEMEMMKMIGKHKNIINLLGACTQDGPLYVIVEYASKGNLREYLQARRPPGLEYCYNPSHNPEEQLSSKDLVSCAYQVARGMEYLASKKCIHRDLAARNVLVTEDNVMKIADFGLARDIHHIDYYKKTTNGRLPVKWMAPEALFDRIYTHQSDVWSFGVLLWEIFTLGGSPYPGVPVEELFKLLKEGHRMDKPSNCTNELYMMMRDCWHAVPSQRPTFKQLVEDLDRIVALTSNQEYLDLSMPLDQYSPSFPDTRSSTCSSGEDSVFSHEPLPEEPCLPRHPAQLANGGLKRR

Take `COc1cc(CCc2cnc3[nH]c(-c4ccc(N5CCN(C)CC5)nc4)cc3n2)cc(OC)c1` [Example 16, 2-[2-(3,5-dimethoxyphenyl)ethyl]-6-[6-(4-methylpiperazin-1-yl)pyridin-3-yl]-5H-pyrrolo[2,3-b]pyrazine]: the results for the IC50 against FGFR3 enzyme (Millipore), at FGFR2 (setting [1]) and at FGFR1 were 100 to 500 nM, < 100 nM and < 100 nM, respectively.
Turning to `COc1cc(CCc2cnc3[nH]c(-c4ccc(CC#N)cc4)cc3n2)cc(OC)c1` [Example 14, (4-{2-[2-(3,5-dimethoxyphenyl)ethyl]-5H-pyrrolo[2,3-b]pyrazin-6-yl}phenyl)acetonitrile], the IC50 (as a rule, the concentration that gives 50% inhibition) against FGFR3 enzyme (Millipore) is 100 to 500 nM; at FGFR2 (setting [1]) it was < 100 nM; on FGFR1, < 100 nM.
As for `COc1cc(CCc2cnc3[nH]c(-c4ccnc(C#N)c4)cc3n2)cc(OC)c1` [Example 60, 4-(2-(3,5-Dimethoxyphenethyl)-5H-pyrrolo[2,3-b]pyrazin-6-yl)picolinonitrile], the values for the IC50 at FGFR3 enzyme (Millipore), on FGFR2 (setting [1]) and against FGFR1 were 100 to 500 nM, < 100 nM and < 100 nM, respectively.
On to `COc1cc(CCc2cnc3[nH]c(-c4ccccc4C)cc3n2)cc(OC)c1` [Example 9, 2-[2-(3,5-dimethoxyphenyl)ethyl]-6-(2-methylphenyl)-5H-pyrrolo[2,3-b]pyrazine], for which the half-maximal inhibitory concentration (IC50) is 500 to 2700 nM against FGFR3 enzyme (Millipore), 100 to 500 nM on FGFR2 and < 100 nM against FGFR1.
Take `COc1cc(CCc2cnc3[nH]c(-c4cncc(N5CCOCC5)c4)cc3n2)cc(OC)c1` [Example 69, 4-(5-(2-(3,5-Dimethoxyphenethyl)-5H-pyrrolo[2,3-b]pyrazin-6-yl)pyridin-3-yl)morpholine]: the IC50 was 100 to 500 nM at FGFR3 enzyme (Millipore), < 100 nM on FGFR2 (setting [1]) and < 100 nM at FGFR1.
